One molecule from patent US8778952B2, “Method of reducing intraosseous hypertension” (priority 2007, dated 2014) can be followed below.

The subject of the experiment is patient with severe arthritis in their knee. Kind of experiment: Case observation: MRI and reported pain of a patient's arthritic knee before and after routine use of a phosphodiesterase inhibitor. The format is in vivo, human. The following applies: one patient, 50 mg of sildenafil, once per day. An excerpt: A physician, who is also the inventor of the present invention, performed an arthroscopic surgical procedure on a patient suffering from a loose cartilage body in the setting of severe arthritis in their knee. The patient was a competitive senior tennis player and declined knee replacement for that reason. The purpose of the procedure was merely to remove a loose body and abate the mechanical symptoms it caused. Approximately one year later, the patient returned to their physician for evaluation of what was believed to be an unrelated ganglion cyst on the same knee. […] Upon questioning by their physician, the patient explained that the only difference in their medical history (including lifestyle, activity, new illness and medications) between the time of the first and second MRIs was that they started using a phosphodiesterase inhibitor. Specifically, the patient started using Viagra® (50 mg of sildenafil, once per day). There were no other changes in the interval medical history.

In the case of `CCCc1nn(C)c2c(=O)[nH]c(-c3cc(S(=O)(=O)N4CCN(C)CC4)ccc3OCC)nc12` [Viagra®, sildenafil], under “FIG. 2 MRI compared with FIG. 1 MRI approximately one year earlier”, the “intraosseous hypertension / bone edema on coronal MRI of knee (white spots on tibial spines)” value is on record as “dissipation of the intraosseous hypertension”. Where the note is “few months prior to second MRI, approximately one year after first MRI”, the “knee pain from arthritis (reported by patient)” value is recorded as “reduction in knee pain”.
